# Assay results: article PMC7994622, “Eryptosis and Malaria: New Experimental Guidelines and Re-Evaluation of the Antimalarial Potential of Eryptosis Inducers” (Frontiers in Cellular and Infection Microbiology, 2021)
# pIC50: −log10 of the molar value. “Also recorded” adds a separate entry of the source. Where a name gives a salt, the structure may show the parent alone. Read-outs that look alike come from different tables or passages of the source.
# Tests used:
# [1] = tested on: P. falciparum-infected erythrocytes; assay: Eryptosis assay by flow cytometry on P. falciparum-infected erythrocytes; format: cell-based, human; conditions: 4 h in iRPMI, 4% hematocrit, 1, 5, 10 μM (ionomycin 1 μM), PS exposure, cell size, intracellular calcium, hemolysis, significant changes
# Method: (§1) Use of human erythrocytes was approved by the La Trobe University Research Ethics Committee (ethics number HEC17‐013) and an Australian Red Cross Blood Service Agreement (Deed 19-05VIC-01). Red blood cell populations are intrinsically heterogeneous and variable between donors, therefore each experiment presented in this study was conducted a minimum of three independent times, each with a different batch of blood. Human red cells were processed as soon as possible upon collection to minimize erythrocyte aging. Naïve (non-infected) erythrocytes and Plasmodium falciparum 3D7-infected erythrocytes were cultured at 37°C, in low oxygen conditions (1% O2, 5% CO2, 94% N2), at 4% or 0.4% hematocrit, in incomplete RPMI media (iRPMI: RPMI 1640 HEPES, 50 mg/L hypoxanthine, 10 mg/L gentamicin, pH 6.74), complete RPMI media (cRPMI: incomplete RPMI supplemented with 2.25 g/L sodium bicarbonate and 5 g/L AlbuMAX II), or Ringer solution (1mM CaCl2, 5mM glucose, 32 mM HEPES pH 7.4, 5 mM KCl, 1mM MgSO4, 125mM NaCl). P. falciparum standard in vitro culture conditions were conducted as previously described ([Trager and Jensen, 1976]).
# (§2) Drug assays measuring eryptosis were carried out in 100 μl or 500 μl of culture when using 4% or 0.4% hematocrit conditions, respectively. DMSO, the vehicle, was used for the no-drug conditions. Cells were incubated at 37°C, in low oxygen conditions for 1 h to 48 h depending on the assay. Each experiment was performed in triplicate unless otherwise indicated and cells were analyzed by flow cytometry. […] Cells were washed in staining buffer (5 mM CaCl2, 5 mM glucose, 32 mM HEPES pH7.4, 5 mM KCl, 1 mM MgSO4, 125 mM NaCl), resuspended in 0.3 μM of intracellular calcium dye x-Rhod-1 AM (Invitrogen) and incubated in the dark at 37°C for 30 min. Subsequently, cells were washed in staining buffer and incubated with Annexin V-PE (1:20 dilution in staining buffer; BD Bioscience) at 37°C for 20 min in the dark for the staining of surface-exposed phosphatidylserine. Cells were resuspended in 200 μl staining buffer and analyzed within the hour using a CytoFLEX S flow cytometer (Beckman Coulter). 100,000 total events were recorded for each condition at a flow rate of 10 μl/min. Data were analyzed using FlowJo V10. For PS exposure measure, gating was set using data obtained with naïve erythrocytes DMSO control. Infected cells were gated using Hoechst fluorescence. The percentage of Annexin V-PE positive cells, the mean forward scatter height (FSC-H) and mean x-Rhod-1 fluorescence area (PE-A) were acquired for naïve and infected-erythrocytes.
# naïve erythrocytes [2] = assay: Hemolysis assay (absorbance 405 nm) on naïve erythrocytes; format: cell-based, human; conditions: 48 h
# Excerpt: Absorbance of culture media alone was considered as baseline.
# naïve erythrocytes [3] = assay: Eryptosis assay by flow cytometry (PS exposure, cell size, intracellular calcium) on naïve erythrocytes; format: cell-based, human; conditions: for Eryptosis hallmarks, naïve erythrocytes: 4 h in iRPMI, 1, 5, 10 μM (ionomycin 1 μM), PS exposure, cell size, intracellular calcium, hemolysis, significant changes
# Method: as §1, §2
# P. falciparum [4] = assay: Parasite growth inhibition assay (SYBR Gold, 72 h); format: cell-based, Plasmodium falciparum 3D7
# Method: as §1
# Compound-induced parasite growth inhibition was measured as previously described ([Morahan et al., 2020]). Briefly, an asynchronous parasite culture at 0.25% parasitemia and 2% hematocrit was incubated in a 96-well plate with a two-fold serial dilution of compound over 72 h in standard culture conditions (cRPMI, 37°C, low oxygen). Compounds (at 10 mM in DMSO) were added to the first well of the dilution series to produce a 50 µM drug concentration (and 0.5% (v/v) DMSO) and diluted two-fold until a concentration of 0.19 nM compound was reached. Each condition was conducted in triplicates, subject to a freeze/thaw cycle and incubated with the DNA intercalant SYBR Gold following manufacturer instructions (SYBR™ Gold Nucleic Acid Stain, Invitrogen). The average fluorescence between triplicates was measured at 495 nm using a CLARIOstar® microplate reader and analyzed as a proxy of parasite replication.
# erythrocytes = conditions: cited from earlier work
# P. falciparum [5] = conditions: cited from earlier work
# P. berghei = conditions: cited from earlier work
# [6] = 1 μM, 1 h, iRPMI, 4% hematocrit
# [7] = Plasmodium falciparum, asynchronous culture, cRPMI, up to 50 µM, N=5, read-out: P. falciparum IC50
# [8] = asynchronous culture, cRPMI, up to 50 µM, N=5, read-out: P. falciparum IC50
smiles,measurement,setting,value
"C[C@H](CCC(=O)O)C[C@H](C)C[C@H](C)C(=O)/C=C(\O)[C@H](C)C[C@H](C)C/C=C/[C@@H](C)[C@@H](O)[C@@H](C)[C@@H](O)C[C@@H]1CC[C@@](C)([C@H]2CC[C@@](C)([C@@H](C)O)O2)O1 [Ionomycin, ionomycin]","Eryptosis hallmarks, P. falciparum-infected erythrocytes",[1],↑ PS exposure ↓ Cell Size (1 μM)
same,"Eryptosis hallmarks, P. falciparum-infected erythrocytes",[1]; listed as ionomycin,significant increase of PS exposure and a decrease in cell size
same,hemolysis,"naïve erythrocytes [2]; 1 μM, Ringer or iRPMI with addition of Albumax, 4% hematocrit",abolish ionomycin-induced hemolysis
same,hemolysis (OD405),"naïve erythrocytes [2]; 1 μM, Ringer, 4% hematocrit",20.5
same,hemolysis (OD405),"naïve erythrocytes [2]; 1 μM, iRPMI, 4% hematocrit",5.5
same,increase in PS exposure compared to the no-drug condition,"naïve erythrocytes [3]; 1 μM, 1 h, Ringer solution, 4% hematocrit",62 fold
same,PS exposure,"naïve erythrocytes [3]; 1 μM, 1 h, Ringer, 4% hematocrit",6.6%
same,PS exposure,naïve erythrocytes [3]; [6],4.4%
same,increase in PS exposure compared to the no-drug condition,naïve erythrocytes [3]; [6],45 fold
same,PS exposure,"naïve erythrocytes [3]; 1 μM, 24 h, Ringer+Albumax, 4% hematocrit",13.2%
same,PS exposure,"naïve erythrocytes [3]; 1 μM, 48 h, Ringer+Albumax, 4% hematocrit",22%
same,PS exposure,"naïve erythrocytes [3]; 1 μM, 48 h, Ringer, 4% hematocrit",24%
same,PS exposure,"naïve erythrocytes [3]; 1 μM, 48 h, iRPMI+Albumax, 4% hematocrit",15%
same,PS exposure,"naïve erythrocytes [3]; 1 μM, 48 h, iRPMI+Albumax, 4% hematocrit, listed as ionomycin",14.6%
same,PS exposure,"naïve erythrocytes [3]; 1 μM, 48 h, iRPMI, 4% hematocrit",23%
same,"Eryptosis hallmarks, naïve erythrocytes",naïve erythrocytes [3]; 4% hematocrit,↑ PS exposure ↓ Cell Size (1 μM)
same,"Eryptosis hallmarks, naïve erythrocytes","naïve erythrocytes [3]; 4% hematocrit, listed as ionomycin",significant increase of PS exposure and a decrease in cell size
"CC(C)(C)CC(C)(C)c1ccc(OCCOCC[N+](C)(C)Cc2ccccc2)cc1 [Benzethonium, benzethonium chloride]","Eryptosis hallmarks, P. falciparum-infected erythrocytes",[1],Ns *
same,"Eryptosis hallmarks, naïve erythrocytes",naïve erythrocytes [3]; 4% hematocrit,Ns
C[C@@H]1CC[C@H]2[C@@H](C)C(=O)O[C@@H]3O[C@@]4(C)CC[C@@H]1[C@]32OO4 [artemisinin],pIC50,"P. falciparum [4]; Plasmodium falciparum, asynchronous culture, cRPMI, read-out: P. falciparum IC50",7.92
"CNC(=O)c1cc(Oc2ccc(NC(=O)Nc3ccc(Cl)c(C(F)(F)F)c3)cc2)ccn1 [BAY 43-9006, Sorafenib]",pIC50,P. falciparum [4]; [7],> 5.00
same,pIC50,P. falciparum [4]; [8],5.13
same,"Eryptosis hallmarks, P. falciparum-infected erythrocytes",[1],Ns
same,hemolysis,"naïve erythrocytes [2]; 10 µM, Ringer, 0.4% hematocrit",significantly induced hemolysis
same,hemolysis,"naïve erythrocytes [2]; 10 µM, Ringer, 4% hematocrit",not
same,hemolysis,"naïve erythrocytes [2]; 10 µM, cRPMI, 4% hematocrit",not
same,percentage of PS-exposing cells,"naïve erythrocytes [3]; 10 µM, 48 h, Ringer solution, 0.4% hematocrit",41%
same,percentage of PS-exposing cells,"naïve erythrocytes [3]; 10 µM, 48 h, Ringer solution, 4% hematocrit",10%
same,PS exposure,"naïve erythrocytes [3]; 10 µM, 48 h, cRPMI, 4% hematocrit",no significant increase
same,"Eryptosis hallmarks, naïve erythrocytes",naïve erythrocytes [3]; 4% hematocrit,Ns
"Nc1ncnc2c1ncn2[C@@H]1O[C@H](CO)C[C@H]1O [Cordycepin, cordycepin]",pIC50,P. falciparum [4]; [7],4.92
same,pIC50,"P. falciparum [4]; asynchronous culture, cRPMI, up to 50 µM, N=5, listed as cordycepin, read-out: P. falciparum IC50",< 5.00
same,pIC50,P. falciparum [4]; [8],4.92
same,Published eryptosis induction concentration,"erythrocytes; mouse erythrocytes, ref Lui et al., 2007","31 µM, ([Lui et al., 2007])"
same,Published eryptosis induction concentration,"erythrocytes; mouse erythrocytes, ref Lui et al., 2007, listed as cordycepin",31 µM
same,"Eryptosis hallmarks, P. falciparum-infected erythrocytes",[1],Ns
same,"Eryptosis hallmarks, naïve erythrocytes",naïve erythrocytes [3]; 4% hematocrit,Ns
CCN(CC)CCCC(C)Nc1ccnc2cc(Cl)ccc12 (stereo not drawn) [chloroquine],pIC50,"P. falciparum [4]; Plasmodium falciparum, read-out: P. falciparum IC50, asynchronous culture, cRPMI, 72 h",7.66
"C=C1C(=O)[C@]23[C@H](O)[C@H]1CC[C@H]2[C@@]12CO[C@]3(O)[C@@H](O)[C@@H]1C(C)(C)CC[C@@H]2O [Oridonin, oridonin]",pIC50,P. falciparum [4]; [7],~5.70
same,pIC50,P. falciparum [4]; [8],≥ 5.70
same,Published eryptosis induction concentration,"erythrocytes; naïve erythrocytes, ref Jilani et al., 2011","25 µM, ([Jilani et al., 2011])"
same,Published eryptosis induction concentration,"erythrocytes; naïve erythrocytes, ref Jilani et al., 2011, listed as oridonin",25 µM
same,"Eryptosis hallmarks, P. falciparum-infected erythrocytes",[1],Ns
same,"Eryptosis hallmarks, P. falciparum-infected erythrocytes",[1]; listed as oridonin,did not induce statistically significant changes; also recorded: no significant increase
same,"Eryptosis hallmarks, naïve erythrocytes",naïve erythrocytes [3]; 4% hematocrit,Ns
same,"Eryptosis hallmarks, naïve erythrocytes","naïve erythrocytes [3]; 4% hematocrit, listed as oridonin",did not induce statistically significant changes; also recorded: no significant increase
"O=c1cc(-c2ccc(O)cc2)oc2cc(O)cc(O)c12 [Apigenin, apigenin]",pIC50,P. falciparum [4]; [8],4.18
same,pIC50,"P. falciparum [5]; in vitro, ref Fallatah and Georges, 2017, read-out: P. falciparum IC50, previously published",4.44
same,Published eryptosis induction concentration,"erythrocytes; naïve erythrocytes, ref Zbidah et al., 2012","15 µM, ([Zbidah et al., 2012])"
same,Published eryptosis induction concentration,"erythrocytes; naïve erythrocytes, ref Zbidah et al., 2012, listed as apigenin",15 µM
same,Effect on P. berghei: parasitemia,"P. berghei; Pb, ref Amiri et al., 2018","Decreased parasitemia (Pb) ([Amiri et al., 2018])"
same,"Eryptosis hallmarks, P. falciparum-infected erythrocytes",[1],Ns
same,"Eryptosis hallmarks, naïve erythrocytes",naïve erythrocytes [3]; 4% hematocrit,Ns
"CCCCc1oc2ccccc2c1C(=O)c1cc(I)c(OCCN(CC)CC)c(I)c1 [Amiodarone, amiodarone HCl]",Effect on P. falciparum: parasitemia,"P. falciparum [5]; Pf in vitro, ref Bobbala et al., 2010b",Reduced parasitemia
same,Published eryptosis induction concentration,"erythrocytes; naïve erythrocytes, ref Nicolay et al., 2007","5 µM, ([Nicolay et al., 2007])"
same,Published eryptosis induction concentration,"erythrocytes; naïve erythrocytes, ref Nicolay et al., 2007, listed as amiodarone",5 µM
same,Effect on P. berghei: parasitemia,"P. berghei; Pb in vivo, ref Bobbala et al., 2010b",Reduced parasitemia
same,Effect on P. berghei: mice survival,"P. berghei; Pb, ref Bobbala et al., 2010b",increased mice survival
same,"Eryptosis hallmarks, P. falciparum-infected erythrocytes",[1],Ns
same,"Eryptosis hallmarks, naïve erythrocytes",naïve erythrocytes [3]; 4% hematocrit,↑ Calcium (5 μM)
